According to patent US5194437A, “1,4-disubstituted piperazines” (Adir et Compagnie, priority 1990, dated 1993):

Key:
[1] = target: T1, 5-HT1A receptors (Rattus norvegicus, UniProt P19327); test: Spontaneous tail flick test (STF), agonist and antagonist activity; type: in vivo, male Wistar rats; parameters: from tissue; host or cells: whole animal, male Wistar rat (in vivo); settings: for Spontaneous tail flicks M.E.D.: agonist: induction of STF, s.c., minimum effective dose; for ED50: rat, sc, 1 h, antagonist: inhibition of STF induced by 8-OH-DPAT 0.63 mg/kg s.c., compound s.c. 60 min before test, read-out: Spontaneous tail flicks ID50 (95% C.L.)
T1 sequence (P19327 1-422): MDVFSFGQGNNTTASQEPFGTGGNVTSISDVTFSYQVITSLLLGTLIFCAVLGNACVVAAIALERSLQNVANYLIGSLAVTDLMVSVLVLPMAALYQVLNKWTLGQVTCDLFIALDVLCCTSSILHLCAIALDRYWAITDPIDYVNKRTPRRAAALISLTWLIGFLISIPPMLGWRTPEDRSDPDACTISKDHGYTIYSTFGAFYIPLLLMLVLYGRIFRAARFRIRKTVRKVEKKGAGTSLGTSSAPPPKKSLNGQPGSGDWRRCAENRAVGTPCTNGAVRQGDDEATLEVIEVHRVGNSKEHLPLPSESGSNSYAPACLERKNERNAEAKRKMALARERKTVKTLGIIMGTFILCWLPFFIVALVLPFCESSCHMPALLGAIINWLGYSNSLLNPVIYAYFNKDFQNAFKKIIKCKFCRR
Procedure: (§1) The tests were carried out on male Wistar rats weighing from 200 to 220 g which had free access to food and drinking water, in standard cages.
(§2) The animals are housed individually for the hypothermia, corticosterone secretion and flat body posture tests, and in groups of three for the tail flick test.
(§3) The laboratory temperature is kept at 21°±1° C., with 60 ±5% humidity. The rats are subjected to a light/dark cycle of 12 hours/12 hours (the light cycle commencing at 7.30 a.m.).
(§4) a/ General procedure for tests of agonist and antagonist activities on 5-HT1A receptors.
(§5) The test compounds were administered subcutaneously (s.c.) 60 minutes before the start of the test, that is to say 30 minutes before the vehicle (agonist responses) or 8-OH-DPAT (antagonist responses).
(§6) In all the tests, the solvent is used in parallel as the control. The animals were allowed to rest in their cages during the time between the injections and evaluation.
(§7) For the agonist studies, the solvent was administered at a dose of 1 ml/kg s.c. 30 minutes before the start of the test. For the antagonist studies, doses of 8-OH-DPAT inducing sub-maximal responses were chosen, i.e. doses of 0.63, 0.16, 0.16 and 0.16 mg/kg s.c. for the tail flick test, the flat body posture test, the corticosterone secretion test and the hypothermia test, respectively.
Tail flicks were determined in animals restrained in horizontal, opaque plastics cylinders, the animals' tails hanging freely over the edge of the laboratory bench. After a 5-minute adaptation period, the number of movements made in 5 minutes is recorded. One STF is defined as the raising of the tail to a level higher than the level of the body axis [Millan M. J. et al., J. Pharmacol. Exp. Ther., 256, 973-982 (1990)].
(§8) In general, after variance analysis, the results are subjected to Dunnett's test. Results are regarded as significant if p<0.05.
(§9) The doses of the test compounds are all expressed in terms of the base. Unless otherwise mentioned, all the compounds were dissolved in sterile water (to which a few drops of lactic acid are added, if necessary) and administered at a volume of 1 ml/kg s.c..

[2] = target: T1, 5-HT1A receptors; test: Flat body posture (FBP), agonist response and antagonism of 8-OH-DPAT; type: in vivo, male Wistar rats; parameters: from tissue; host or cells: whole animal, male Wistar rat (in vivo); settings: sc
Procedure: as §1, §2, §3, §4, §5, §6, §7
(§10) The same animals were employed for the evaluation of the effect of the test compounds on the FBP and for the determination of the plasma levels of CS. All the tests were carried out in the morning between 10.30 and 12.30, i.e. when the cicardian levels of CS are at their lowest.
25 minutes after the treatment (i.e. 5 minutes before decapitation), the animals are observed in their cages and the presence or absence of FBP is noted.
(§11) The presence of FBP is defined by a characteristic posture of the animal. The animal is then in a position of ventral decubitus with the hind limbs clearly in extension. 5 minutes after observation of FBP, the animals are decapitated and the trunk blood is collected in chilled tubes containing 50 μl of a 10% EDTA solution. After centrifugation at 4000 rpm, the plasma is removed and stored at -30° C. until assay.
as §8
For the dose-response for induction and inhibition of FBP, the effective doses 50 (ED50) (doses at which 50% of the animals show a response) were calculated by the method of Litchfield and Wilcoxon.
as §9

[3] = target: T1, 5-HT1A receptors; test: Corticosterone secretion (CS), plasma, agonist and antagonist activity; type: in vivo, male Wistar rats; parameters: from tissue; host or cells: whole animal, male Wistar rat (in vivo); settings: for Corticosterone secretion M.E.D.: agonist: induction of CS, s.c., minimum effective dose; for ED50: rat, sc, 1 h, antagonist: inhibition of CS induced by 8-OH-DPAT 0.16 mg/kg s.c., compound s.c. 60 min before test, read-out: Corticosterone secretion ID50 (95% C.L.)
Procedure: as §1, §2, §3, §4, §5, §6, §7, §10, §11
CS was determined using a radio-competitive assay for a CS-binding protein in plasma: transcortin. The latter is obtained from monkey serum. Separation of the CS-transcortin complexes from free CS was effected by means of a solution of dextran and active charcoal. The detection limit was 50 pg/tube. Intra- and inter-assay variations were 5 and 15%, respectively [cf. Rivet J. M. et al., Eur. J. Pharmacol., 183, 634-635 (1990)].
Since the base levels of CS in plasma are never zero, the following formula was used to calculate the percentage inhibition of plasmatic CS induced by 8-OH-DPAT: [formula]
as §8, §9

[4] = target: T1, 5-HT1A receptors; test: Body temperature (hypothermia), agonist and antagonist activity; type: in vivo, male Wistar rats; parameters: from tissue; host or cells: whole animal, male Wistar rat (in vivo); settings: for Hypothermia M.E.D.: agonist: induction of hypothermia, s.c., minimum effective dose; for ED50: rat, sc, 1 h, antagonist: inhibition of hypothermia induced by 8-OH-DPAT 0.16 mg/kg s.c., compound s.c. 60 min before test, read-out: Hypothermia ID50 (95% C.L.)
Procedure: as §1, §2, §3, §4, §5, §6, §7
The rats are immobilised and a lubricated digital thermometer (Thermistoprobe from Testotherm, Basle, Switzerland) is inserted into the rectum to a depth of 5 cm. 30 seconds after insertion, the temperature is read off a digital scale. The percentage inhibition is calculated with the aid of the formula mentioned above.
as §8, §9

[5] = target: T1, 5-HT1A receptors; test: In vitro binding test, 5-HT1A receptors, [3]H-8-OH-DPAT, rat hippocampus membranes; parameters: Hippocampus from the brains of decapitated rats; from tissue; host or cells: rat hippocampus membranes (male Wistar); species or system rat (male Wistar)
Procedure: Hippocampus from the brains of decapitated rats was immediately frozen on dry ice and then stored at -80° C. until preparation of membranes. The tissue was homogenised at 4° C. in the appropriate buffer using a Polytron (Brinkman Instruments - Lucerne - Switzerland) and centrifuged at 20,000 rpm.
Incubation was carried out at 25° C. for 30 minutes. Non-specific binding was defined by 10 μM of 5-HT. The tests were terminated by rapid filtration by means of a Brandel harvester over glass-fibre filters pretreated with 0.1% polyethyleneimine.
The inhibitory concentration 50 values (IC50) were determined according to method 8 of Tallarida R. J. and Murray R. B., Manual of pharmacological calculations with computer programs, Springer Verlag, N.Y. (1987).
The pKi was calculated according to the formula [formula] where [L] is the concentration of the hot ligand ([3]H-8-OH-DPAT, 0.4 nM) and Kd is the apparent dissociation constant determined from saturation experiments.
The test substances were dissolved in the incubation buffer.

[6] = target: T1, 5-HT1A receptors; test: Overall agonist/antagonist behaviour at 5-HT1A receptors (in vivo tests); parameters: from tissue; host or cells: whole animal, male Wistar rat (in vivo); species or system male Wistar rats; settings: conclusion from Tables 1 and 2
Procedure: as §4, §5, §6, §7

[7] = 1 h, read-out: Flat body posture ED50 (95% C.L.), antagonism of 8-OH-DPAT, inhibition of FBP, 8-OH-DPAT 0.16 mg/kg s.c., compound s.c. 60 min before test
[8] = induction of FBP, s.c., dose at which 50% of the animals show a response, read-out: Flat body posture ED50 (95% C.L.), agonist response

SMILES | Spontaneous tail flicks M.E.D. [1] [mg/kg] | ED50 [1] [mg/kg] | ED50 [2, 7] [mg/kg] | ED50 [2, 8] [mg/kg] | Corticosterone secretion M.E.D. [3] [mg/kg] | ED50 [3] [mg/kg] | Hypothermia M.E.D. [4] [mg/kg] | ED50 [4] [mg/kg] | Ki [5] [nM] | Behaviour towards 5-HT1A receptors [6]
c1ccc2c(c1)CC2CN1CCN(c2cccc3c2OCCO3)CC1 (racemic) [Example 1, (R,S)-4-(benzodioxan-5-yl)-1-[(benzocyclobutan-1-yl)methyl]-piperazine] | > 10.0 | 0.09 | 0.71 | > 10 | > 2.5 | < 2.5 | 10.0 | 0.5 | 1.82 | –
O=C1CC2(CCCC2)CC(=O)N1CCCCN1CCN(c2ncccn2)CC1 [buspirone, reference compound] | > 10.0 | 3.71 | > 10 | 7.4 | > 2.5 | > 10 | 2.5 | – | – | agonist behaviour
c1ccc2c(c1)CC2CCN1CCN(c2cccc3c2OCCO3)CC1 (racemic) [Example 2, (R,S)-4-(benzodioxan-5-yl)-1-[2-(benzocyclobutan-1-yl)-ethyl]-piperazine] | > 10.0 | 0.085 | 0.76 | > 20 | 10.0 | 0.66 | 40.0 | 0.65 | 0.617 | –
